# Measured values published in patent publication US20240277740A1, “TREATMENT OF KNOWN AND UNKNOWN VIRAL INFECTION WITH LIPID AGENTS” (Viratides, LLC, priority 2020, published 2024).
# Several values for one entry are separate records, joined by “and”; a condition that tells them apart may be missing. Identical values can stand only once. Like-named read-outs stand apart in the source and are kept apart here.
# Columns and labels:
# [1] = test system: uninfected Vero E6 cells; conditions: for Viability of Uninfected Vero E6 Cells: 4-day treatment, mean ± s.d. of duplicates; for Viability of Uninfected Vero E6 Cells (A540): 4 days, raw duplicates
# [2] = test system: SARS-CoV-2 (MEX-BC2/2020); assay: Live SARS-CoV-2 CPE-based antiviral assay in Vero E6 cells (neutral red); assay type: cell-based
smiles,measurement,setting,value
"C[S+](C)[O-] [DMSO, reference compound]",block of cell viability,[1]; tested at 10%,more than 95%
"N#C[C@@]1(c2ccc3c(N)ncnn23)O[C@H](CO)[C@@H](O)[C@H]1O [GS-441524, reference compound]",Inhibition of SARS-CoV-2 (MEX-BC2/2020) Virus-Induced CPE,"[2]; 0.03 μM, single data point",0.09 % mock
same,Inhibition of SARS-CoV-2 (MEX-BC2/2020) Virus-Induced CPE,"[2]; 0.08 μM, single data point",1.1 % mock
same,Inhibition of SARS-CoV-2 (MEX-BC2/2020) Virus-Induced CPE,"[2]; 0.25 μM, single data point",16.1 % mock
same,"Raw OD - Absorbance (540 nm), infected cells","[2]; 0.25 μM, single data point",0.194
same,Inhibition of SARS-CoV-2 (MEX-BC2/2020) Virus-Induced CPE,"[2]; 0.74 μM, single data point",134.9 % mock
same,"Raw OD - Absorbance (540 nm), infected cells","[2]; 0.74 μM, single data point",0.648
same,Inhibition of SARS-CoV-2 (MEX-BC2/2020) Virus-Induced CPE,[2]; 1 μM,110.2 % mock
same,"Raw OD - Absorbance (540 nm), infected cells",[2]; 1 μM,0.554 and 0.553
same,Inhibition of SARS-CoV-2 (MEX-BC2/2020) Virus-Induced CPE,"[2]; 6.7 μM, single data point",116.6 % mock
same,"Raw OD - Absorbance (540 nm), infected cells","[2]; 6.7 μM, single data point",0.578
same,Inhibition of SARS-CoV-2 (MEX-BC2/2020) Virus-Induced CPE,[2]; 10 μM,100.0 % mock
same,"Raw OD - Absorbance (540 nm), infected cells",[2]; 10 μM,0.507 and 0.522
same,IC50,"[2]; Severe acute respiratory syndrome coronavirus 2, Vero C1008, Vero E6, 96 h, estimated by GraphPad Prism, R2 = 0.977",~280 nM
same,concentrations at which virus-induced CPE was completely prevented,[2]; Vero E6,≥ 0.74 µM
same,prevention of virus-induced CPE by control inhibitor (in words),[2]; quality control of infectivity assay,prevented completely the virus-induced CPE
"CCCCCCCC/C=C\CCCCCCCCCCCCCC(=O)N[C@@H](CO[C@@H]1O[C@H](CO)[C@H](O)[C@H](OS(=O)(=O)O)[C@H]1O)[C@H](O)/C=C/CCCCCCCCCCCCC [Sulfatide 24:1, C24:1 3′-sulfo Galactosylceramide (d18:1/24:1(15Z))]",Inhibition of SARS-CoV-2 (MEX-BC2/2020) Virus-Induced CPE,"[2]; 0.78 μg/mL, average ± s.d. of duplicates",−3.4 ± 0.6 % mock
same,"Raw OD - Absorbance (540 nm), infected cells","[2]; 0.78 μg/mL, duplicates",0.121 and 0.118
same,Inhibition of SARS-CoV-2 (MEX-BC2/2020) Virus-Induced CPE,"[2]; 1.6 μg/mL, average ± s.d. of duplicates",−1.7 ± 4.1 % mock
same,"Raw OD - Absorbance (540 nm), infected cells","[2]; 1.6 μg/mL, duplicates",0.137 and 0.115
same,Inhibition of SARS-CoV-2 (MEX-BC2/2020) Virus-Induced CPE,"[2]; 3.1 μg/mL, average ± s.d. of duplicates",−3.6 ± 1.1 % mock
same,"Raw OD - Absorbance (540 nm), infected cells","[2]; 3.1 μg/mL, duplicates",0.122 and 0.116
same,Inhibition of SARS-CoV-2 (MEX-BC2/2020) Virus-Induced CPE,"[2]; 6.25 μg/mL, average ± s.d. of duplicates",−3.8 ± 1.1 % mock
same,"Raw OD - Absorbance (540 nm), infected cells","[2]; 6.25 μg/mL, duplicates",0.115 and 0.121
same,Inhibition of SARS-CoV-2 (MEX-BC2/2020) Virus-Induced CPE,"[2]; 12.5 μg/mL, average ± s.d. of duplicates",1.3 ± 3.9 % mock
same,"Raw OD - Absorbance (540 nm), infected cells","[2]; 12.5 μg/mL, duplicates",0.127 and 0.18
same,Inhibition of SARS-CoV-2 (MEX-BC2/2020) Virus-Induced CPE,"[2]; 25 μg/mL, average ± s.d. of duplicates",1.9 ± 2.2 % mock
same,"Raw OD - Absorbance (540 nm), infected cells","[2]; 25 μg/mL, duplicates",0.134 and 0.146
same,Inhibition of SARS-CoV-2 (MEX-BC2/2020) Virus-Induced CPE,"[2]; 50 μg/mL, average ± s.d. of duplicates",21.6 ± 13.0 % mock
same,"Raw OD - Absorbance (540 nm), infected cells","[2]; 50 μg/mL, duplicates",0.180 and 0.250
same,Inhibition of SARS-CoV-2 (MEX-BC2/2020) Virus-Induced CPE,"[2]; 100 μg/mL, average ± s.d. of duplicates",61.3 ± 8.5 % mock
same,"Raw OD - Absorbance (540 nm), infected cells","[2]; 100 μg/mL, duplicates",0.390 and 0.344
same,IC50 (antiviral),"[2]; Vero E6, 96 h, neutral red",84.9 µg/mL
same,prevention of virus-induced CPE (in words),"[2]; at the two highest concentrations tested, 50 μg/mL and 100 μg/mL",prevented the virus-induced cytopathic effect (CPE) in a dose-dependent manner
same,CC50,[1],>100 µg/mL
same,cytotoxicity in viability assay (in words),[1],dose-dependent trend of cytotoxicity
same,Viability of Uninfected Vero E6 Cells,[1]; 0.78 μg/mL,89.8 ± 5.8 % vehicle
same,Viability of Uninfected Vero E6 Cells (A540),[1]; 0.78 μg/mL,0.457 and 0.424
same,Viability of Uninfected Vero E6 Cells,[1]; 1.6 μg/mL,99.3 ± 1.4 % vehicle
same,Viability of Uninfected Vero E6 Cells (A540),[1]; 1.6 μg/mL,0.495 and 0.487
same,Viability of Uninfected Vero E6 Cells,[1]; 3.1 μg/mL,97.3 ± 1.4 % vehicle
same,Viability of Uninfected Vero E6 Cells (A540),[1]; 3.1 μg/mL,0.487 and 0.479
same,Viability of Uninfected Vero E6 Cells,[1]; 6.25 μg/mL,95.7 ± 2.3 % vehicle
same,Viability of Uninfected Vero E6 Cells (A540),[1]; 6.25 μg/mL,0.483 and 0.470
same,Viability of Uninfected Vero E6 Cells,[1]; 12.5 μg/mL,95.6 ± 3.5 % vehicle
same,Viability of Uninfected Vero E6 Cells (A540),[1]; 12.5 μg/mL,0.486 and 0.466
same,Viability of Uninfected Vero E6 Cells,[1]; 25 μg/mL,85.8 ± 11.0 % vehicle
same,Viability of Uninfected Vero E6 Cells (A540),[1]; 25 μg/mL,0.468 and 0.405
same,Viability of Uninfected Vero E6 Cells,[1]; 50 μg/mL,73.7 ± 13.1 % vehicle
same,Viability of Uninfected Vero E6 Cells (A540),[1]; 50 μg/mL,0.425 and 0.350
same,Viability of Uninfected Vero E6 Cells,[1]; 100 μg/mL,63.8 ± 7.9 % vehicle
same,Viability of Uninfected Vero E6 Cells (A540),[1]; 100 μg/mL,0.370 and 0.325
